Results as given in patent US10968172B2, “USP30 inhibitors” (Mitobridge, Inc., priority 2017, dated 2021).

Target: USP30 (Homo sapiens (Human), UniProt Q70CQ3)
Test: In vitro biochemical assay for USP30 enzyme (Ubiquitin-Rhodamine110 cleavage, fluorescence)
Settings: 20 nM USP30, 15 min pre-incubation, 100 nM Ub rhodamine substrate, 2 hrs at room temperature
Method: In vitro biochemical assay for USP30 enzyme
The in vitro assay for USP30 evaluates the ability of a test compound to inhibit the activity of the enzyme to cleave ubiquitin from a substrate. Ubiquitin-rhodamine 110 is a quenched, fluorescent substrate for USP30. Cleavage of the amide bond between the C-terminal glycine of ubiquitin and rhodamine results in an increase in rhodamine fluorescence at 535 nm (Exc. 485 nm).
Incubation of the substrate in the presence or absence of USP30 was compared to confirm the deubiquitylating activity of USP30. The USP30 enzyme assay was performed by pre-incubating 20 nM of USP30 with varying concentration of a test compound in the assay buffer [PBS (pH 7.4), 1 mM DTT, 0.01% Tween 20, 0.01% BSA, DMSO final concentration is 1%] for 15 mins at room temperature, following which 100 nM of substrate Ub rhodamine was added and incubated at room temperature for 2 hrs and the plate was read for fluorescence intensity at Ex. 485 nm/535 nm in VICTOR X5 plate reader. The percent inhibition of activity of the enzyme is calculated by comparing counts in the presence and absence of compounds.
Test compounds were screened at various concentrations (10-12 tested concentrations) and dose response curves were generated was generated using GraphPad Prism software Version 7 (San Diego, Calif., USA) with non-linear regression curve fit for sigmoidal dose response (variable slope).

Chain of USP30 (Q70CQ3 whole entry): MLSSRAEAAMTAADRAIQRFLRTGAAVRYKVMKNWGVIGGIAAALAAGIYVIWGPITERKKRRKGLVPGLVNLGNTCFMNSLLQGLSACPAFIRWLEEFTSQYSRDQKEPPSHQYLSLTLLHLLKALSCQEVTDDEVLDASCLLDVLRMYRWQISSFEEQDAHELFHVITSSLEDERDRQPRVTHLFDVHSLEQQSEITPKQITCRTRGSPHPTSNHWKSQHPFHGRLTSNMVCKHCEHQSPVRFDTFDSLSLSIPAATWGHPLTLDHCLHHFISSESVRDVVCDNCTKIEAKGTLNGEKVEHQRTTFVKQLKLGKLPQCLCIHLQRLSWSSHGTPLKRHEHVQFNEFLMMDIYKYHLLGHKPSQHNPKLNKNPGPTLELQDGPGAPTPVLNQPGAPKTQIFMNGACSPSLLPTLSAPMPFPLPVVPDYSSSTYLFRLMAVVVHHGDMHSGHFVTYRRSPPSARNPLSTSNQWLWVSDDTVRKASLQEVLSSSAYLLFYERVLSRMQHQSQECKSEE

SMILES	IC50 [nM]
COc1ccc(C[C@H](NC(=O)c2ccncc2)C(=O)Nc2ccc(S(=O)(=O)NC(C)(C)C)cc2)cc1 [Compound 19ab, (S)-N-(1-((4-(N-(tert-butyl)sulfamoyl)phenyl)amino)-3-(4-methoxyphenyl)-1-oxopropan-2-yl)isonicotinamide]	2400
CC(C)(C)NS(=O)(=O)c1ccc(NC(=O)[C@H](CC2CCOCC2)NC(=O)C2CCCCC2)cc1 [Compound 19ac, (S)-N-(1-((4-(N-(tert-butyl)sulfamoyl)phenyl)amino)-1-oxo-3-(tetrahydro-2H-pyran-4-yl)propan-2-yl)cyclohexanecarboxamide]	71
CC(C)(C)NS(=O)(=O)c1ccc(NC(=O)[C@H](Cc2cccc(C#N)c2)NC(=O)C2CCCCC2)cc1 [Compound 19ad, (S)-N-(1-((4-(N-(tert-butyl)sulfamoyl)phenyl)amino)-3-(3-cyanophenyl)-1-oxopropan-2-yl)cyclohexanecarboxamide]	41
CC(C)(C)NS(=O)(=O)c1ccc(NC(=O)[C@H](Cc2ccc(OC(F)(F)F)cc2)NC(=O)c2ccc(F)cc2)cc1 [Compound 19ae, (S)-N-(1-((4-(N-(tert-butyl)sulfamoyl)phenyl)amino)-1-oxo-3-(4-(trifluoromethoxy)phenyl)propan-2-yl)-4-fluorobenzamide]	3600
CC(C)(C)NS(=O)(=O)c1ccc(NC(=O)[C@H](Cc2ccc(F)cc2)NC(=O)c2ccccc2)cc1 [Compound 19b, (S)-N-(1-((4-(N-(tert-butyl)sulfamoyl)phenyl)amino)-3-(4-fluorophenyl)-1-oxopropan-2-yl)benzamide]	133
CC(C)(C)NS(=O)(=O)c1ccc(NC(=O)[C@H](CC2CC2)NC(=O)C2CCCCC2)cc1 [Compound 19c, (S)-N-(1-((4-(N-(tert-butyl)sulfamoyl)phenyl)amino)-3-cyclopropyl-1-oxopropan-2-yl)cyclohexanecarboxamide]	810
CC(C)(C)NS(=O)(=O)c1ccc(NC(=O)[C@H](Cc2cccc(Cl)c2)NC(=O)C2CCCCC2)cc1 [Compound 19e, (S)-N-(1-((4-(N-(tert-butyl)sulfamoyl)phenyl)amino)-3-(3-chlorophenyl)-1-oxopropan-2-yl)cyclohexanecarboxamide]	> 10000
COc1ccc(C[C@H](NC(=O)c2ccc(F)cc2)C(=O)Nc2ccc(S(=O)(=O)NC(C)(C)C)cc2)cc1 [Compound 19f, (S)-N-(1-((4-(N-(tert-butyl)sulfamoyl)phenyl)amino)-3-(4-methoxyphenyl)-1-oxopropan-2-yl)-4-fluorobenzamide]	22
CC(C)(C)NS(=O)(=O)c1ccc(NC(=O)[C@H](Cc2cccs2)NC(=O)c2ccc(F)cc2)cc1 [Compound 19g, (S)-N-(1-((4-(N-(tert-butyl)sulfamoyl)phenyl)amino)-1-oxo-3-(thiophen-2-yl)propan-2-yl)-4-fluorobenzamide]	19
CC(C)NS(=O)(=O)c1ccc(NC(=O)[C@H](Cc2ccccc2)NC(=O)C2CCCCC2)cc1 [Compound 19h, (S)-N-(1-((4-(N-isopropylsulfamoyl)phenyl)amino)-1-oxo-3-phenylpropan-2-yl)cyclohexanecarboxamide]	179
C[C@@H](O)[C@H](NC(=O)C1CCCCC1)C(=O)Nc1ccc(S(=O)(=O)NC(C)(C)C)cc1 [Compound 19i, N-((2S,3R)-1-((4-(N-(tert-butyl)sulfamoyl)phenyl)amino)-3-hydroxy-1-oxobutan-2-yl)cyclohexanecarboxamide]	> 10000
CC(C)(C)NS(=O)(=O)c1ccc(NC(=O)[C@H](CO)NC(=O)C2CCCCC2)cc1 [Compound 19j, (S)-N-(1-((4-(N-(tert-butyl)sulfamoyl)phenyl)amino)-3-hydroxy-1-oxopropan-2-yl)cyclohexanecarboxamide]	> 10000
CC(C)(C)NS(=O)(=O)c1ccc(NC(=O)[C@H](Cc2ccc(F)cc2)NC(=O)c2ccc(F)cc2)cc1 [Compound 19k, (S)-N-(1-((4-(N-(tert-butyl)sulfamoyl)phenyl)amino)-3-(4-fluorophenyl)-1-oxopropan-2-yl)-4-fluorobenzamide]	26
CC(C)(C)NS(=O)(=O)c1ccc(NC(=O)[C@H](Cc2ccc(-c3ccccc3)cc2)NC(=O)c2ccc(F)cc2)cc1 [Compound 19l, (S)-N-(3-([1,1′-biphenyl]-4-yl)-1-((4-(N-(tert-butyl)sulfamoyl)phenyl)amino)-1-oxopropan-2-yl)-4-fluorobenzamide]	169
CC(C)(C)NS(=O)(=O)c1ccc(NC(=O)[C@H](Cc2ccccc2)NC(=O)C2CCCCC2)cc1F [Compound 19m, (S)-N-(1-((4-(N-(tert-butyl)sulfamoyl)-3-fluorophenyl)amino)-1-oxo-3-phenylpropan-2-yl)cyclohexanecarboxamide]	275
CC(C)(C)NS(=O)(=O)c1ccc(NC(=O)[C@H](Cc2cccnc2)NC(=O)c2ccc(F)cc2)cc1 [Compound 19n, (S)-N-(1-((4-(N-(tert-butyl)sulfamoyl)phenyl)amino)-1-oxo-3-(pyridin-3-yl)propan-2-yl)-4-fluorobenzamide]	16
CC(C)(C)NS(=O)(=O)c1ccc(NC(=O)[C@H](Cc2ccccn2)NC(=O)c2ccc(F)cc2)cc1 [Compound 19o, (S)-N-(1-((4-(N-(tert-butyl)sulfamoyl)phenyl)amino)-1-oxo-3-(pyridin-2-yl)propan-2-yl)-4-fluorobenzamide]	48
CC(C)(C)NS(=O)(=O)c1cccc2c(NC(=O)[C@H](CC3CCCCC3)NC(=O)C3CCCCC3)cccc12 [Compound 19p, (S)-N-(1-((5-(N-(tert-butyl)sulfamoyl)naphthalen-1-yl)amino)-3-cyclohexyl-1-oxopropan-2-yl)cyclohexanecarboxamide]	195
CC(C)(C)NS(=O)(=O)c1cccc2c(NC(=O)[C@H](Cc3ccccc3)NC(=O)/C=C/c3ccccc3)cccc12 [Compound 19q, (S)-N-(1-((5-(N-(tert-butyl)sulfamoyl)naphthalen-1-yl)amino)-1-oxo-3-phenylpropan-2-yl)cinnamamide]	> 10000
CC(C)(C)NS(=O)(=O)c1ccc(NC(=O)[C@H](Cc2cccs2)NC(=O)c2ccccn2)cc1 [Compound 19s, (S)-N-(1-((4-(N-(tert-butyl)sulfamoyl)phenyl)amino)-1-oxo-3-(thiophen-2-yl)propan-2-yl)picolinamide]	200
COc1ccc(C(=O)N[C@@H](Cc2cccs2)C(=O)Nc2ccc(S(=O)(=O)NC(C)(C)C)cc2)nc1 [Compound 19t, (S)-N-(1-((4-(N-(tert-butyl)sulfamoyl)phenyl)amino)-1-oxo-3-(thiophen-2-yl)propan-2-yl)-5-methoxypicolinamide]	1040
COc1ccc(C[C@H](NC(=O)c2ccccn2)C(=O)Nc2ccc(S(=O)(=O)NC(C)(C)C)cc2)cc1 [Compound 19u, (S)-N-(1-((4-(N-(tert-butyl)sulfamoyl)phenyl)amino)-3-(4-methoxyphenyl)-1-oxopropan-2-yl)picolinamide]	195
COc1ccc(C[C@H](NC(=O)c2cncs2)C(=O)Nc2ccc(S(=O)(=O)NC(C)(C)C)cc2)cc1 [Compound 19w, (S)-N-(1-((4-(N-(tert-butyl)sulfamoyl)phenyl)amino)-3-(4-methoxyphenyl)-1-oxopropan-2-yl)thiazole-5-carboxamide]	> 10000
